# Laboratory results from patent US11077100B2, “Tetrahydroquinoline derivatives as P2X7 receptor antagonists” (RaQualia Pharma Inc., priority 2017, dated 2021).
# Experiments:
# [1] = target: human P2X7 (Homo sapiens (Human), UniProt Q99572); assay: Human P2X7 functional assay (Ca2+ influx, Fluo-4, FDSS); assay type: cell-based; settings: antagonistic activity with respect to the human P2X7 receptor; BzATP final concentration 80 microM
# How it was run: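 HEK293 cells stably expressing C-terminally FLAG-tagged human P2X7, loaded with Fluo-4. Compounds were preincubated for 10 min at room temperature, then 80 μM BzATP (final) was added and Ca2+ fluorescence read at 540 nm (480 nm excitation) by FDSS. IC50 values come from 7-point curves, duplicate wells.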
# [2] = target: rat P2X7 (Rattus norvegicus (Rat), UniProt Q64663); assay: Rat P2X7 functional assay (Ca2+ influx, Fluo-4, FDSS); assay type: cell-based; settings: HEK293 cells stably expressing rat P2X7; BzATP final 10 microM; 7-point dose-response; read-out: Antagonistic activities with respect to the rat P2X7 receptor (IC50)
# rat P2X7, sequence (Q64663 whole entry): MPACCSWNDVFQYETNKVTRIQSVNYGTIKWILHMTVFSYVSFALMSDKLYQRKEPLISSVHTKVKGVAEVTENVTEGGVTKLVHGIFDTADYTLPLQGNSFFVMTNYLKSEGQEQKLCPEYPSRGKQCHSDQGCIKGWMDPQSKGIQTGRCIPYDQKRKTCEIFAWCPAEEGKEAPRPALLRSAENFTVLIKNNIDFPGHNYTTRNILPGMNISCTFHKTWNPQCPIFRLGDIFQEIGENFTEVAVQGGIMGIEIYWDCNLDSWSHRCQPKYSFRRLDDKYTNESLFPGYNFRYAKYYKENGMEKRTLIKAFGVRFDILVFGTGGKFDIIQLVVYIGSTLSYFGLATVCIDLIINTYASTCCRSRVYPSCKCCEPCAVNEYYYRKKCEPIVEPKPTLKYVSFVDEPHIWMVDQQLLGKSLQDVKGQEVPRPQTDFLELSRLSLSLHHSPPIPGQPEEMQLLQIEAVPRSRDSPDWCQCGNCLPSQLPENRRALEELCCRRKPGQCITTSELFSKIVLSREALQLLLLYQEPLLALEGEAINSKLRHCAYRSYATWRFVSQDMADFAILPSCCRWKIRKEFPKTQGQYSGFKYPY
# How it was run: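 HEK293 cells stably expressing rat P2X7 (5,000/well, plated 24 h before) loaded with Fluo-4; compounds preincubated 10 min at room temperature, then Ca2+ rise after 10 microM BzATP (final) read on FDSS (480/540 nm). IC50 from 7-point curves, duplicate wells.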
# human P2X7, sequence (Q99572 whole entry): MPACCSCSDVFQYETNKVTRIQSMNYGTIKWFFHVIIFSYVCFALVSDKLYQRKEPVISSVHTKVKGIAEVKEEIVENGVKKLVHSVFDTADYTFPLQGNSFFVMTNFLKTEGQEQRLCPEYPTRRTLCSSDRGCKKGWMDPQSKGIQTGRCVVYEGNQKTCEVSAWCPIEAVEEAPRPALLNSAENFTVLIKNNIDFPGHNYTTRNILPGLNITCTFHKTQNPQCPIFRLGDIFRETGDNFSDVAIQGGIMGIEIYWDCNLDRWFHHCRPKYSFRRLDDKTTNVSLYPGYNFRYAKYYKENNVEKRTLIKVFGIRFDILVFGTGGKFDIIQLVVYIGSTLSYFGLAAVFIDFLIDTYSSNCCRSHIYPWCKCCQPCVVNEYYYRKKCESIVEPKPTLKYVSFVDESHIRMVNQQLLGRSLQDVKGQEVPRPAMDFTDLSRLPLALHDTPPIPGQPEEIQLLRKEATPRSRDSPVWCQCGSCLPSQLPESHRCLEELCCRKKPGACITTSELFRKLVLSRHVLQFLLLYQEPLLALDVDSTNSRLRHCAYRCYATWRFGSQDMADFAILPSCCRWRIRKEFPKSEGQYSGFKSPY
SMILES,IC50 [1] [nM],IC50 [2] [nM]
"COCC1(O)CCC(F)(C(=O)NCc2c(C)cc(Cl)cc2Cl)c2cccnc21 (centres unmarked) [Example 39, N-(2,4-dichloro-6-methylbenzyl)-5-fluoro-8-hydroxy-8-(methoxymethyl)-5,6,7,8-tetrahydro-quinoline-5-carboxamide]",< 50,< 1000
"O=C(N[C@@H]1CCc2ccccc21)[C@]1(F)CC[C@H](O)c2ncccc21 [Example 196, (5S,8S)-N-((R)-2,3-dihydro-1H-inden-1-yl)-5-fluoro-8-hydroxy-5,6,7,8-tetrahydroquinoline-5-carboxamide]",< 50,< 1000
"O=C(NCc1ccc(F)cc1Cl)[C@@H]1CC[C@H](O)c2ncccc21 [Example 68, (5R,8S)-N-(2-chloro-4-fluorobenzyl)-8-hydroxy-5,6,7,8-tetrahydroquinoline-5-carboxamide]",< 50,< 1000
"O=C(NCc1ccc(Cl)cc1Cl)[C@]1(F)CC[C@@](O)(CN2CC(O)C2)c2ncccc21 (relative stereo) [Example 51, (5S*,8R*)-N-(2,4-dichlorobenzyl)-5-fluoro-8-hydroxy-8-((3-hydroxyaze-tidin-1-yl)methyl)-5,6,7,8-tetrahydro-quinoline-5-carboxamide]",< 50,< 1000
"CC(NC(=O)[C@]1(F)CC[C@H](O)c2ncccc21)C12CC3CC(CC(C3)C1)C2 (stereo partly drawn) [Example 231, (5S,8S)-N-(1-(adamantan-1-yl)ethyl)-5-fluoro-8-hydroxy-5,6,7,8-tetrahydroquinoline-5-carboxamide]",< 50,< 1000
"C[C@@H](NC(=O)[C@]1(F)CC[C@](C)(O)c2ncccc21)c1ccc(F)cc1Cl [Example 270, (5S,8S)-N-((R)-1-(2-chloro-4-fluorophenyl)ethyl)-5-fluoro-8-hydroxy-8-methyl-5,6,7,8-tetrahydroquinoline-5-carboxamide]",< 50,< 1000
"O=C(NCc1c(Cl)cc(Cl)cc1CO)[C@]1(F)CC[C@H](O)c2ncccc21 [Example 131, (5S,8S)-N-(2,4-dichloro-6-(hydroxymethyl)benzyl)-5-fluoro-8-hydroxy-5,6,7,8-tetrahydroquinoline-5-carboxamide]",< 50,< 1000
"CO[C@H]1CC[C@@](F)(C(=O)NCc2c(F)cc(F)cc2F)c2cccnc21 [Example 341, (5S,8S)-5-fluoro-8-methoxy-N-(2,4,6-trifluorobenzyl)-5,6,7,8-tetrahydroquinoline-5-carboxamide]",50 to 100,< 1000
"O=C1CO[C@@]2(CC[C@@](F)(C(=O)NCc3ccc(Cl)cc3Cl)c3cccnc32)CN1 [Example 294, (2S,5′S)-N-(2,4-dichlorobenzyl)-5′-fluoro-5-oxo-6′,7′-dihydro-5′H-spiro [morpholine-2,8′-quinoline]-5′-carboxamide]",50 to 100,< 1000
O=C(NCc1c(Cl)cc(Cl)cc1C(F)F)[C@]1(F)CC[C@@H](O)c2ncccc21 [Example 115],< 50,< 1000
"Cc1cc(Cl)cc(Cl)c1CNC(=O)[C@@H]1CC[C@@H](O)c2ncccc21 [Example 84, (5R,8R)-N-(2,4-dichloro-6-methylbenzyl)-8-hy-droxy-5,6,7,8-tetrahydro-quinoline-5-carboxamide]",< 50,< 1000
"CS(=O)(=O)C[C@]1(O)CC[C@@](F)(C(=O)NCc2ccc(Cl)cc2Cl)c2cccnc21 [Example 298, (5S,8S)-N-(2,4-dichlorobenzyl)-5-fluoro-8-hydroxy-8-((methylsulfonyl)methyl)-5,6,7,8-tetrahydroquinoline-5-carboxamide]",< 50,< 1000
"N#Cc1ccc(CNC(=O)[C@]2(F)CC[C@H](O)c3ncccc32)c(F)c1 [Example 201, (5S,8S)-N-(4-cyano-2-fluorobenzyl)-5-fluoro-8-hydroxy-5,6,7,8-tetrahydroquinoline-5-carboxamide]",50 to 100,< 1000
"Cc1cc(Cl)cc(Cl)c1CNC(=O)C1CCC(O)c2ncccc21 (centres unmarked) [Example 6, N-(2,4-dichloro-6-methyl-benzyl)-8-hydroxy-5,6,7,8-tetrahydroquinoline-5-carboxamide]",< 50,< 1000
"O=C(NCc1c(Cl)cc(F)cc1CO)[C@]1(F)CC[C@@](O)(CO)c2ncccc21 [Example 317, (5S,8S)-N-(2-chloro-4-fluoro-6-(hydroxymethyl)benzyl)-5-fluoro-8-hydroxy-8-(hydroxymethyl)-5,6,7,8-tetrahydroquinoline-5-carboxamide]",< 50,< 1000
"COCc1cc(Cl)cc(Cl)c1CNC(=O)C1(F)CCC(O)c2ncccc21 (centres unmarked) [Example 23, N-(2,4-dichloro-6-(methoxy-methyl)benzyl)-5-fluoro-8 hydroxy-5,6,7,8-tetrahydro-quinoline-5-carboxamide]",< 50,< 1000

# Now from value to compound:
IC50 [1] [nM],IC50 [2] [nM],SMILES
< 50,< 1000,"O=C(NCc1ccc(Cl)c(F)c1Cl)[C@]1(F)CC[C@@](O)(CO)c2ncccc21 [Example 319, (5S,8S)-N-(2,4-dichloro-3-fluorobenzyl)-5-fluoro-8-hydroxy-8-(hydroxymethyl)-5,6,7,8-tetrahydroquinoline-5-carboxamide]"
< 50,< 1000,"CSC[C@]1(O)CC[C@@](F)(C(=O)NCc2ccc(F)cc2Cl)c2cccnc21 [Example 288, (5S,8S)-N-(2-chloro-4-fluorobenzyl)-5-fluoro-8-hydroxy-8-((methylthio)methyl)-5,6,7,8-tetrahydroquinoline-5-carboxamide]"
301 to 1000,< 1000,"O=C(NCc1ccc(F)cc1C(F)(F)F)[C@]1(F)CC[C@@H](O)c2ncccc21 [Example 110, (5S,8R)-5-fluoro-N-(4-fluoro-2-(trifluoromethyl)benzyl)-8-hydroxy-5,6,7,8-tetrahydroquinoline-5-carboxamide]"
< 50,< 1000,"O=C(NCc1ccc(F)cc1F)[C@]1(F)CC[C@H](O)c2ncccc21 [Example 141, (5S,8S)-N-(2,4-difluorobenzyl)-5-fluoro-8-hydroxy-5,6,7,8-tetrahydroquinoline-5-carboxamide]"
301 to 1000,< 1000,"O=C1CCC(C(=O)NCc2cccc(Cl)c2Cl)c2cccnc21 (centres unmarked) [Example 3, N-(2,3-dichlorobenzyl)-8-oxo-5,6,7,8-tetrahydro-quinoline-5-carboxamide]"
101 to 300,< 1000,"O=C(NCc1ccc(F)cc1Cl)[C@]1(F)CC[C@@H](O)c2ncccc21 [Example 107, (5S,8R)-N-(2-chloro-4-fluorobenzyl)-5-fluoro-8-hydroxy-5,6,7,8-tetrahydroquinoline-5-carboxamide]"
< 50,< 1000,"O=C1CCC(F)(C(=O)NCc2cccc(C(F)(F)F)c2Cl)c2cccnc21 (centres unmarked) [Example 13, N-(2-chloro-3-(trifluoromethyl)benzyl)-5-fluoro-8-oxo-5,6,7,8-tetrahydro-quinoline-5-carboxamide]"
< 50,< 1000,"O=C(NCc1ccc(Cl)c(F)c1F)[C@]1(F)CC[C@H](O)c2ncccc21 [Example 183, (5S,8S)-N-(4-chloro-2,3-difluorobenzyl)-5-fluoro-8-hydroxy-5,6,7,8-tetrahydroquinoline-5-carboxamide]"
< 50,< 1000,"O=C(NCc1ccc(Cl)cc1C(F)(F)F)[C@]1(F)CC[C@H](O)c2ncccc21 [Example 157, (5S,8S)-N-(4-chloro-2-(trifiuoromethyl)benzyl)-5-fluoro-8-hydroxy-5,8,7,8-tetrahydroquinoline-5-carboxamide]"
101 to 300,< 1000,"CS(=O)(=O)C[C@]1(O)CC[C@@](F)(C(=O)NCc2ccc(F)cc2Cl)c2cccnc21 [Example 299, (5S,8S)-N-(2-chloro-4-fluorobenzyl)-5-fluoro-8-hydroxy-8-((methylsulfonyl)methyl)-5,6,7,8-tetrahydroquinoline-5-carboxamide]"
< 50,< 1000,"C[C@]1(O)CC[C@@](F)(C(=O)NCc2ccc(F)cc2Cl)c2cccnc21 [Example 259, (5S,8S)-N-(2-chloro-4-fluorobenzyl)-5-fluoro-8-hydroxy-8-methyl-5,6,7,8-tetrahydroquinoline-5-carboxamide]"
50 to 100,< 1000,"O=C(NCc1ccc(F)c(F)c1Cl)[C@]1(F)CC[C@](O)(CO)c2ncccc21 [Example 313, (5S,8R)-N-(2-chloro-3,4-difluorobenzyl)-5-fluoro-8-hydroxy-8-(hydroxymethyl)-5,6,7,8-tetrahydroquinoline-5-carboxamide]"
< 50,< 1000,"O=C(NCc1cc(F)c(F)cc1Cl)[C@]1(F)CC[C@H](O)c2ncccc21 [Example 163, (5S,8S)-N-(2-chloro-4,5-difluorobenzyl)-5-fluoro-8-hydroxy-5,6,7,8-tetrahydroquinoline-5-carboxamide]"
301 to 1000,< 1000,"O=C(NCc1ccc(F)cc1Cl)[C@]1(F)CC[C@](O)(CO)c2ncccc21 [Example 307, (5S,8R)-N-(2-chloro-4-fluorobenzyl)-5-fluoro-8-hydroxy-8-(hydroxymethyl)-5,6,7,8-tetrahydroquinoline-5-carboxamide]"
< 50,< 1000,"O=C(NCc1ccc(Cl)cc1Cl)[C@]1(F)CC[C@@](O)(CO)c2ncccc21 [Example 304, (5S,8S)-N-(2,4-dichlorobenzyl)-5-fluoro-8-hydroxy-8-(hydroxymethyl)-5,6,7,8-tetrahydroquinoline-5-carboxamide]"
